Test [1] addresses T1, human NK2 receptor expressed in Mouse Erythroleukemia (MEL) cells (Homo sapiens, UniProt P21452).
T1 construct: expressed in transfected cells; host or cells: Mouse Erythroleukemia (MEL) cells
T1 sequence (P21452 1-398): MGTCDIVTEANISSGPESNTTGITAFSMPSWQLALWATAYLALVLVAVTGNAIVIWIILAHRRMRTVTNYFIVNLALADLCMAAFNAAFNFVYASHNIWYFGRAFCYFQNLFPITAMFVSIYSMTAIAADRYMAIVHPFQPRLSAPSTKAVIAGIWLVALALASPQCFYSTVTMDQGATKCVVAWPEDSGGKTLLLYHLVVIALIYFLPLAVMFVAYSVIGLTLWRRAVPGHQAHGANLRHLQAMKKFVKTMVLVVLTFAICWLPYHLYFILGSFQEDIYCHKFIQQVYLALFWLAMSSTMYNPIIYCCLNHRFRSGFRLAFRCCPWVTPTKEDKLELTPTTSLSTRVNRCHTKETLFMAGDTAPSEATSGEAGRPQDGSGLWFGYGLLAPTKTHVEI
Briefly: Neurokinin A (NKA) Receptor-binding Assay (Test A). The source says:
Neurokinin A (NKA) Receptor-binding Assay (Test A)

Test [2] concerns guinea pig trachea. Briefly: Guinea Pig Assay (Test B): functional assay in guinea pig trachea, antagonism of agonist NKA or [b-ala^8]-NKA(4-10). Format: cell-based. Particulars: Cavia porcellus, read-out: pKB in Test B (converted). The text has this: Guinea Pig Assay (Test B)

Structures can show the parent of a compound that is named as a salt.

Usually Ki stands for the dissociation constant of the complex between target and ligand, obtained from inhibition or displacement.

Molecule `OC1(c2ccccc2)CCN(CCC(Cn2ccnc2-c2ccccc2)c2ccc(Cl)c(Cl)c2)CC1` (centres unmarked) [Example 2, 1-[3-(3,4-Dichlorophenyl)-4-(2-phenylimidazol-1-yl)butyl]-4-hydroxy-4-phenylpiperidine dihydrochloride] came in with a Ki in test [1] of 23 nM.

As for `O=C1NCCCN1C1CCN(CCC(Cn2cnnc2-c2ccccc2)c2ccc(Cl)c(Cl)c2)CC1` (centres unmarked) [Example 3, 1-[1-[3-(3,4-Dichlorophenyl)-4-(2-phenyl-1,3,4-triazol-1-yl)butyl]piperidin-4-yl]tetrahydropyrimidin-2-one hydrochloride], the Kb in test [2] was 2 nM.

(Values after US6355695B1, “Substituted heterocycles” (Zeneca Limited, priority 1995, dated 2002).)
